Organism: Rattus norvegicus
Assay: DrugMatrix - Regimen: Daily Repeat
Type: toxicity, organism-based, Sprague-Dawley
Set-up: regimen Daily Repeat, gender Male, age 6-8 weeks
Settings: in vivo, po, route oral GAVAGE, vehicle 100 % WATER; for ABSOLUTE BASOPHIL / ABSOLUTE EOSINOPHIL / ABSOLUTE LYMPHOCYTE / ABSOLUTE MONOCYTE / ABSOLUTE SEGMENTED NEUTROPHIL / BASOPHIL / EOSINOPHIL / ERYTHROCYTE COUNT / HEMATOCRIT / HEMOGLOBIN / LEUKOCYTE COUNT / LYMPHOCYTE / MEAN CORPUSCULAR HEMOGLOBIN / MEAN CORPUSCULAR HEMOGLOBIN CONCENTRATION / MEAN CORPUSCULAR VOLUME / MONOCYTE / NEUTROPHIL / NUCLEATED RED BLOOD CELLS / PLATELET COUNT: tissue Blood; for ALANINE AMINOTRANSFERASE / ALBUMIN / ALKALINE PHOSPHATASE / ASPARTATE AMINOTRANSFERASE / BLOOD UREA NITROGEN / CARBON DIOXIDE / CHLORIDE / CHOLESTEROL / CREATINE PHOSPHOKINASE / CREATININE / GLUCOSE / LACTATE DEHYDROGENASE / LIPASE / PHOSPHORUS / POTASSIUM / SODIUM / TOTAL BILIRUBIN / TOTAL PROTEIN / URIC ACID: tissue Plasma
[1] = 0.07 mg/kg, 120 h, dose level Low, time 5 day
[2] = 0.5 mg/kg, 72 h, dose level High, time 3 day
[3] = 0.5 mg/kg, 120 h, dose level High, time 5 day

Cc1cc(C(C)(C)C)c(O)c(C)c1CC1=NCCN1 [OXYMETAZOLINE]
ABSOLUTE BASOPHIL [1]: 0 CELLS/uL
ABSOLUTE EOSINOPHIL [1]: 196 CELLS/uL
ABSOLUTE LYMPHOCYTE [1]: 15823.67 CELLS/uL
ABSOLUTE MONOCYTE [1]: 436.67 CELLS/uL
ABSOLUTE SEGMENTED NEUTROPHIL [1]: 2110.33 CELLS/uL
BASOPHIL [1]: 0%
EOSINOPHIL [1]: 1%
ERYTHROCYTE COUNT [1]: 5.33 x10E6/uL
HEMATOCRIT [1]: 33.03%
HEMOGLOBIN [1]: 13.6 G/DL
LEUKOCYTE COUNT [1]: 18.57 x10E3/uL
LYMPHOCYTE [1]: 85.33%
MEAN CORPUSCULAR HEMOGLOBIN [1]: 25.53 pg
MEAN CORPUSCULAR HEMOGLOBIN CONCENTRATION [1]: 41.13 G/DL
MEAN CORPUSCULAR VOLUME [1]: 61.93 fL
MONOCYTE [1]: 2.33%
NEUTROPHIL [1]: 11.33%
NUCLEATED RED BLOOD CELLS [1]: 0 /100WBC
PLATELET COUNT [1]: 1316.33 x10E3/uL
ALANINE AMINOTRANSFERASE [1]: 45.33 u/L
ALBUMIN [1]: 4.4 G/DL
ALKALINE PHOSPHATASE [1]: 411.67 u/L
ASPARTATE AMINOTRANSFERASE [1]: 82 u/L
BLOOD UREA NITROGEN [1]: 13 mg/dL
CARBON DIOXIDE [1]: 29 mmol/L
CHLORIDE [1]: 101.67 MEQ/L
CHOLESTEROL [1]: 75.33 mg/dL
CREATINE PHOSPHOKINASE [1]: 214.67 u/L
CREATININE [1]: 0.21 mg/dL
GLUCOSE [1]: 167 mg/dL
LACTATE DEHYDROGENASE [1]: 203.67 u/L
LIPASE [1]: 10.67 u/L
PHOSPHORUS [1]: 11.53 mg/dL
POTASSIUM [1]: 6.21 MEQ/L
SODIUM [1]: 142.97 MEQ/L
TOTAL BILIRUBIN [1]: 0.13 mg/dL
TOTAL PROTEIN [1]: 5.97 G/DL
URIC ACID [1]: 1.73 mg/dL
ABSOLUTE BASOPHIL [2]: 0 CELLS/uL
ABSOLUTE EOSINOPHIL [2]: 0 CELLS/uL
ABSOLUTE LYMPHOCYTE [2]: 15583 CELLS/uL
ABSOLUTE MONOCYTE [2]: 59.33 CELLS/uL
ABSOLUTE SEGMENTED NEUTROPHIL [2]: 1491 CELLS/uL
BASOPHIL [2]: 0%
EOSINOPHIL [2]: 0%
ERYTHROCYTE COUNT [2]: 5.61 x10E6/uL
HEMATOCRIT [2]: 35.17%
HEMOGLOBIN [2]: 13.97 G/DL
LEUKOCYTE COUNT [2]: 17.13 x10E3/uL
LYMPHOCYTE [2]: 91%
MEAN CORPUSCULAR HEMOGLOBIN [2]: 24.9 pg
MEAN CORPUSCULAR HEMOGLOBIN CONCENTRATION [2]: 39.73 G/DL
MEAN CORPUSCULAR VOLUME [2]: 62.7 fL
MONOCYTE [2]: 0.33%
NEUTROPHIL [2]: 8.67%
NUCLEATED RED BLOOD CELLS [2]: 0 /100WBC
PLATELET COUNT [2]: 1369.67 x10E3/uL
ALANINE AMINOTRANSFERASE [2]: 42.67 u/L
ALBUMIN [2]: 3.6 G/DL
ALKALINE PHOSPHATASE [2]: 345.33 u/L
ASPARTATE AMINOTRANSFERASE [2]: 79.67 u/L
BLOOD UREA NITROGEN [2]: 16 mg/dL
CARBON DIOXIDE [2]: 25.67 mmol/L
CHLORIDE [2]: 105 MEQ/L
CHOLESTEROL [2]: 70.67 mg/dL
CREATINE PHOSPHOKINASE [2]: 215.33 u/L
CREATININE [2]: 0.14 mg/dL
GLUCOSE [2]: 166.67 mg/dL
LACTATE DEHYDROGENASE [2]: 174 u/L
LIPASE [2]: 9 u/L
PHOSPHORUS [2]: 10.3 mg/dL
POTASSIUM [2]: 5.92 MEQ/L
SODIUM [2]: 144.53 MEQ/L
TOTAL BILIRUBIN [2]: 0.2 mg/dL
TOTAL PROTEIN [2]: 5.43 G/DL
URIC ACID [2]: 1.73 mg/dL
ABSOLUTE BASOPHIL [3]: 0 CELLS/uL
ABSOLUTE EOSINOPHIL [3]: 250.33 CELLS/uL
ABSOLUTE LYMPHOCYTE [3]: 17058 CELLS/uL
ABSOLUTE MONOCYTE [3]: 0 CELLS/uL
ABSOLUTE SEGMENTED NEUTROPHIL [3]: 1425 CELLS/uL
BASOPHIL [3]: 0%
EOSINOPHIL [3]: 1.33%
ERYTHROCYTE COUNT [3]: 5.31 x10E6/uL
HEMATOCRIT [3]: 33.13%
HEMOGLOBIN [3]: 13.6 G/DL
LEUKOCYTE COUNT [3]: 18.73 x10E3/uL
LYMPHOCYTE [3]: 90.33%
MEAN CORPUSCULAR HEMOGLOBIN [3]: 25.67 pg
MEAN CORPUSCULAR HEMOGLOBIN CONCENTRATION [3]: 41.03 G/DL
MEAN CORPUSCULAR VOLUME [3]: 62.53 fL
MONOCYTE [3]: 0%
NEUTROPHIL [3]: 8.33%
NUCLEATED RED BLOOD CELLS [3]: 0 /100WBC
PLATELET COUNT [3]: 1420 x10E3/uL
ALANINE AMINOTRANSFERASE [3]: 47.33 u/L
ALBUMIN [3]: 3.93 G/DL
ALKALINE PHOSPHATASE [3]: 346 u/L
ASPARTATE AMINOTRANSFERASE [3]: 73 u/L
BLOOD UREA NITROGEN [3]: 14.33 mg/dL
CARBON DIOXIDE [3]: 30 mmol/L
CHLORIDE [3]: 104 MEQ/L
CHOLESTEROL [3]: 72.33 mg/dL
CREATINE PHOSPHOKINASE [3]: 164.33 u/L
CREATININE [3]: 0.11 mg/dL
GLUCOSE [3]: 141 mg/dL
LACTATE DEHYDROGENASE [3]: 161 u/L
LIPASE [3]: 10 u/L
PHOSPHORUS [3]: 10.57 mg/dL
POTASSIUM [3]: 6.08 MEQ/L
SODIUM [3]: 142.83 MEQ/L
TOTAL BILIRUBIN [3]: 0.1 mg/dL
TOTAL PROTEIN [3]: 5.37 G/DL
URIC ACID [3]: 1.4 mg/dL
